Measured values as given in the CheMixHub viscosity set.
± gives the uncertainty stated by the source.

Assay: xn = mol fraction of the nth substance listed

CCCCCCCCCCCCCC[P+](CCCCCC)(CCCCCC)CCCCCC.c1nnc[n-]1 + O=C=O
Details | viscosity [mPa·s]
298.15 K, 100 kPa, x2 = 0.5 | 638 ± 55

O=C1CCCCC1 + Cc1ccccc1
viscosity [mPa·s]
Details | 298.15 K | 303.15 K | 308.15 K
101 kPa, x1 = 0.1059 | 0.615 ± 0.085 | – | –
101 kPa, x1 = 0.2177 | 0.682 ± 0.092 | – | –
101 kPa, x1 = 0.3103 | 0.74 ± 0.099 | – | –
101 kPa, x1 = 0.4166 | 0.829 ± 0.11 | – | –
101 kPa, x1 = 0.5047 | 0.884 ± 0.12 | – | –
101 kPa, x1 = 0.6049 | 0.971 ± 0.12 | – | –
101 kPa, x1 = 0.7171 | 1.218 ± 0.15 | – | –
101 kPa, x1 = 0.7943 | 1.333 ± 0.16 | – | –
101 kPa, x1 = 0.9041 | 1.574 ± 0.19 | – | –
101 kPa, x2 = 0.1021 | – | 1.396 ± 0.016 | –
101 kPa, x2 = 0.202 | – | 1.218 ± 0.014 | –
101 kPa, x2 = 0.3024 | – | 1.068 ± 0.013 | –
101 kPa, x2 = 0.4051 | – | 0.9428 ± 0.011 | –
101 kPa, x2 = 0.4964 | – | 0.8546 ± 0.01 | –
101 kPa, x2 = 0.6017 | – | 0.753 ± 0.009 | –
101 kPa, x2 = 0.6963 | – | 0.6911 ± 0.0083 | –
101 kPa, x2 = 0.8022 | – | 0.6292 ± 0.0076 | –
101.33 kPa, x1 = 0.1032 | 0.61 ± 0.004 | 0.573 ± 0.004 | 0.543 ± 0.004
101.33 kPa, x1 = 0.1997 | 0.668 ± 0.005 | 0.625 ± 0.004 | 0.59 ± 0.004
101.33 kPa, x1 = 0.3024 | 0.738 ± 0.005 | 0.689 ± 0.005 | 0.648 ± 0.004
101.33 kPa, x1 = 0.4055 | 0.824 ± 0.005 | 0.767 ± 0.005 | 0.721 ± 0.005
101.33 kPa, x1 = 0.504 | 0.922 ± 0.006 | 0.854 ± 0.006 | 0.799 ± 0.005
101.33 kPa, x1 = 0.602 | 1.043 ± 0.007 | 0.972 ± 0.006 | 0.903 ± 0.006
101.33 kPa, x1 = 0.7012 | 1.194 ± 0.007 | 1.103 ± 0.007 | 1.02 ± 0.007
101.33 kPa, x1 = 0.7999 | 1.391 ± 0.009 | 1.273 ± 0.008 | 1.183 ± 0.007
101.33 kPa, x1 = 0.9027 | 1.654 ± 0.01 | 1.505 ± 0.009 | 1.382 ± 0.009

CCCCCCO + C1CCCCC1
Details | viscosity [mPa·s]
293.15 K, 100 kPa, x2 = 0.0817 | 4.68 ± 0.38
293.15 K, 100 kPa, x2 = 0.1603 | 4.1 ± 0.33
293.15 K, 100 kPa, x2 = 0.2421 | 3.55 ± 0.29
293.15 K, 100 kPa, x2 = 0.3502 | 2.91 ± 0.23
293.15 K, 100 kPa, x2 = 0.4409 | 2.45 ± 0.2
293.15 K, 100 kPa, x2 = 0.5593 | 1.94 ± 0.16
293.15 K, 100 kPa, x2 = 0.6517 | 1.64 ± 0.13
293.15 K, 100 kPa, x2 = 0.7396 | 1.4 ± 0.11
293.15 K, 100 kPa, x2 = 0.8512 | 1.18 ± 0.1
293.15 K, 100 kPa, x2 = 0.9402 | 1.05 ± 0.08
303 K, 101.33 kPa, x1 = 0.1 | 0.8842 ± 0.02
303 K, 101.33 kPa, x1 = 0.2008 | 1.003 ± 0.022
303 K, 101.33 kPa, x1 = 0.2997 | 1.155 ± 0.025
303 K, 101.33 kPa, x1 = 0.4002 | 1.329 ± 0.029
303 K, 101.33 kPa, x1 = 0.4994 | 1.58 ± 0.035
303 K, 101.33 kPa, x1 = 0.6004 | 1.919 ± 0.044
303 K, 101.33 kPa, x1 = 0.6986 | 2.266 ± 0.055
303 K, 101.33 kPa, x1 = 0.8004 | 2.705 ± 0.069
303 K, 101.33 kPa, x1 = 0.8991 | 3.173 ± 0.086
303.15 K, 100 kPa, x2 = 0.0817 | 3.47 ± 0.28
303.15 K, 100 kPa, x2 = 0.1603 | 3.06 ± 0.25
303.15 K, 100 kPa, x2 = 0.2421 | 2.68 ± 0.22
303.15 K, 100 kPa, x2 = 0.3502 | 2.23 ± 0.18
303.15 K, 100 kPa, x2 = 0.4409 | 1.91 ± 0.15
303.15 K, 100 kPa, x2 = 0.5593 | 1.56 ± 0.13
303.15 K, 100 kPa, x2 = 0.6517 | 1.34 ± 0.11
303.15 K, 100 kPa, x2 = 0.7396 | 1.14 ± 0.09
303.15 K, 100 kPa, x2 = 0.8512 | 0.96 ± 0.08
303.15 K, 100 kPa, x2 = 0.9402 | 0.86 ± 0.07
303.15 K, 101 kPa, x1 = 0.6491 | 1.907 ± 0.2
303.15 K, 101.33 kPa, x1 = 0.1085 | 0.9365 ± 0.012
303.15 K, 101.33 kPa, x1 = 0.2023 | 1.058 ± 0.013
303.15 K, 101.33 kPa, x1 = 0.3065 | 1.225 ± 0.015
303.15 K, 101.33 kPa, x1 = 0.3939 | 1.392 ± 0.017
303.15 K, 101.33 kPa, x1 = 0.5019 | 1.641 ± 0.019
303.15 K, 101.33 kPa, x1 = 0.6052 | 1.93 ± 0.023
303.15 K, 101.33 kPa, x1 = 0.701 | 2.255 ± 0.026
303.15 K, 101.33 kPa, x1 = 0.7991 | 2.649 ± 0.03
303.15 K, 101.33 kPa, x1 = 0.8894 | 3.088 ± 0.035
308.15 K, 101 kPa, x1 = 0.6491 | 1.701 ± 0.17
313 K, 101.33 kPa, x1 = 0.1 | 0.7554 ± 0.018
313 K, 101.33 kPa, x1 = 0.2008 | 0.8505 ± 0.019
313 K, 101.33 kPa, x1 = 0.2997 | 0.9723 ± 0.021
313 K, 101.33 kPa, x1 = 0.4002 | 1.115 ± 0.024
313 K, 101.33 kPa, x1 = 0.4994 | 1.302 ± 0.027
313 K, 101.33 kPa, x1 = 0.6004 | 1.526 ± 0.032
313 K, 101.33 kPa, x1 = 0.6986 | 1.781 ± 0.039
313 K, 101.33 kPa, x1 = 0.8004 | 2.083 ± 0.047
313 K, 101.33 kPa, x1 = 0.8991 | 2.417 ± 0.057
313.15 K, 100 kPa, x2 = 0.0817 | 2.61 ± 0.21
313.15 K, 100 kPa, x2 = 0.1603 | 2.33 ± 0.19
313.15 K, 100 kPa, x2 = 0.2421 | 2.04 ± 0.16
313.15 K, 100 kPa, x2 = 0.3502 | 1.72 ± 0.14
313.15 K, 100 kPa, x2 = 0.4409 | 1.49 ± 0.12
313.15 K, 100 kPa, x2 = 0.5593 | 1.24 ± 0.1
313.15 K, 100 kPa, x2 = 0.6517 | 1.08 ± 0.09
313.15 K, 100 kPa, x2 = 0.7396 | 0.93 ± 0.08
313.15 K, 100 kPa, x2 = 0.8512 | 0.79 ± 0.06
313.15 K, 100 kPa, x2 = 0.9402 | 0.72 ± 0.06
313.15 K, 101 kPa, x1 = 0.6491 | 1.63 ± 0.17
323 K, 101.33 kPa, x1 = 0.1 | 0.65 ± 0.016
323 K, 101.33 kPa, x1 = 0.2008 | 0.7271 ± 0.017
323 K, 101.33 kPa, x1 = 0.2997 | 0.8205 ± 0.018
323 K, 101.33 kPa, x1 = 0.4002 | 0.9237 ± 0.02
323 K, 101.33 kPa, x1 = 0.4994 | 1.061 ± 0.022
323 K, 101.33 kPa, x1 = 0.6004 | 1.239 ± 0.025
323 K, 101.33 kPa, x1 = 0.6986 | 1.433 ± 0.029
323 K, 101.33 kPa, x1 = 0.8004 | 1.658 ± 0.034
323 K, 101.33 kPa, x1 = 0.8991 | 1.896 ± 0.04
323.15 K, 100 kPa, x2 = 0.0817 | 2.02 ± 0.16
323.15 K, 100 kPa, x2 = 0.1603 | 1.8 ± 0.14
323.15 K, 100 kPa, x2 = 0.2421 | 1.6 ± 0.13
323.15 K, 100 kPa, x2 = 0.3502 | 1.36 ± 0.11
323.15 K, 100 kPa, x2 = 0.4409 | 1.19 ± 0.1
323.15 K, 100 kPa, x2 = 0.5593 | 1 ± 0.08
323.15 K, 100 kPa, x2 = 0.6517 | 0.87 ± 0.07
323.15 K, 100 kPa, x2 = 0.7396 | 0.77 ± 0.06
323.15 K, 100 kPa, x2 = 0.8512 | 0.67 ± 0.05
323.15 K, 100 kPa, x2 = 0.9402 | 0.61 ± 0.05
